The values below come from US4115385A, “Antibacterial 3-(5-tetrazolyl) penam compounds” (Pfizer Inc., priority 1977, dated 1978).

For orientation: MIC means the lowest concentration found to suppress growth.

Values after ≈ are worked out from the molar mass of the structure shown. Where only a bound is given, the exact number is not on record here.

The first assay relates to Streptococcus pyogenes. Kind of assay: In vitro minimum inhibitory concentration (MIC) vs. Strep. pyogenes. Type of assay: cell-based. The conditions noted are these: Examples. The method, then: The antibacterial penam compounds of the instant invention show activity against a wide variety of gram-positive and gram-negative bacteria. […] The broth is inoculated with the bacterial culture, and with the test antibiotic, and then it is incubated overnight. On the next day, the test is read visually. The minimum inhibitory concentration (MIC) is the lowest concentration of antibiotic which prevents turbidity, i.e., which prevents growth of the microorganism. In vitro activities of several of the penam compounds of the invention are presented later in this specification.
In Table II, the minimum inhibitory concentrations (MIC's) of compounds of formula I, wherein R^2 is hydrogen, against a strain of Streptococcus pyogenes, are reported; and in Table III, minimum inhibitory concentrations of compounds of formula I, wherein R^2 is hydrogen, against a strain of Staphylococcus aureus, are presented. Because of the tautomeric nature of such tetrazole derivatives, referred to hereinbefore,each of the preparations tested also contains some of the corresponding compound of formula II, wherein R^3 is hydrogen.
As to “6-(2-Phenylacetamido)-2,2-dimethyl-3-(1-pivaloyloxymethyl]-tetrazol-5-yl)penam and 6-(2-Phenylacetamido)-2,2-dimethyl-3-(2-[pivaloyloxylmethyl]tetrazol-5-yl)penam”, the “MIC against Strep. pyogenes” value turned out to be 0.2 µg/mL.

The same assay, now with this note: Streptococcus pyogenes, read-out: MIC vs. Strep. pyogenes.
With `CC1(C)S[C@@H]2[C@H](NC(=O)C(N)c3cc(O)ccc3Br)C(=O)N2[C@H]1c1nnn[nH]1` (mixture of isomers), the minimum inhibitory concentration (MIC) is < 0.1 µg/mL.
Consider `CC1(C)S[C@@H]2[C@H](NC(=O)C(N)c3cccnc3)C(=O)N2[C@H]1c1nnn[nH]1` (mixture of isomers) [DL-2-amino-2-(3-pyridyl)acetyl], for which the MIC is < 0.1 µg/mL.
Same read-out and setting: under `CC1(C)S[C@@H]2[C@H](NC(=O)C(N)c3ccc(S(N)(=O)=O)cc3)C(=O)N2[C@H]1c1nnn[nH]1` (mixture of isomers) [DL-2-amino-2-(p-sulfamoylphenyl)acetyl] stands < 0.1 µg/mL.
Still for that read-out and setting: as for `CC1(C)S[C@@H]2[C@H](NC(=O)Cc3ccccc3CN=[N+]=[N-])C(=O)N2[C@H]1c1nnn[nH]1` [2-(2-azidomethylphenyl)acetyl, 6-(2-[2-Azidomethylphenyl]acetamido)-2,2-dimethyl-3-(5-tetrazolyl)penam], the figure is ≤ 0.1 µg/mL; as for `CC1(C)S[C@@H]2[C@H](NC(=O)C(NC(=O)CBr)c3ccccc3)C(=O)N2[C@H]1c1nn[nH]n1` (stereo partly drawn) [2-(2-bromoacetamido)-2-phenylacetyl, 6-(2-[2-bromoacetamido]-2-phenylacetamido)-2,2-dimethyl-3-(5-tetrazolyl)penam], < 0.1 µg/mL.
As for `CC1(C)S[C@@H]2[C@H](NC(=O)CNC(=N)c3cccs3)C(=O)N2[C@H]1c1nnn[nH]1` [2-(2-thiophenecarboxamidino)acetyl], the MIC was < 0.1 µg/mL.
Same read-out and setting: as for `CC1(C)S[C@@H]2[C@H](NC(=O)Cc3cccc(OCCN)c3)C(=O)N2[C@H]1c1nn[nH]n1` [2-(3-[2-aminoethoxy]phenyl)acetyl, 6-(2-[3-(2-Aminoethoxy)phenyl]acetamido)-2,2-dimethyl-3-(5-tetrazolyl)penam], the figure is < 0.1 µg/mL; as for `CC1(C)S[C@@H]2[C@H](NC(=O)CNC(=O)NC(=N)c3ccccc3)C(=O)N2[C@H]1c1nnn[nH]1` [2-(3-[benzimidoyl]ureido)-acetyl], < 0.1 µg/mL.
Take `CC(=O)NC(=O)N[C@@H](C(=O)N[C@@H]1C(=O)N2[C@@H]1SC(C)(C)[C@@H]2c1nn[nH]n1)c1ccccc1` [2-(3-acetylureido)-2-phenylacetyl]: the MIC is < 0.1 µg/mL.
On the same count and under the same terms, as for `CC1(C)S[C@@H]2[C@H](NC(=O)Cc3sccc3CN)C(=O)N2[C@H]1c1nnn[nH]1` [2-(3-aminomethyl-2-thienyl)-acetyl, 6-(2-[3-Aminomethyl-2-thienyl]acetamido)-2,2-dimethyl-3-(5-tetrazolyl)penam], the figure is ≤ 0.1 µg/mL.
On the same count and under the same terms, under `CC1(C)S[C@@H]2[C@H](NC(=O)Cc3sccc3CN=[N+]=[N-])C(=O)N2[C@H]1c1nnn[nH]1` [2-(3-azidomethyl-2-thienyl-acetyl, 6-(2-[3-Azidomethyl-2-thienyl]acetamido)-2,2-dimethyl-3-(5-tetrazolyl)penam] stands ≤ 0.1 µg/mL.
On to `CC1(C)S[C@@H]2[C@H](NC(=O)[C@H](NC(=O)NC(=O)c3ccccc3)c3ccccc3)C(=O)N2[C@H]1c1nn[nH]n1` [2-(3-benzoylureido)-2-phenylacetyl], for which the minimum inhibitory concentration (MIC) is < 0.1 µg/mL.
On the same count and under the same terms, as for `CCCC(=O)NC(=O)N[C@@H](C(=O)N[C@@H]1C(=O)N2[C@@H]1SC(C)(C)[C@@H]2c1nn[nH]n1)c1ccccc1` [2-(3-butyrylureido)-2-phenylacetyl], the figure is < 0.1 µg/mL.
Still for that read-out and setting: as for `CCC(=O)NC(=O)N[C@@H](C(=O)N[C@@H]1C(=O)N2[C@@H]1SC(C)(C)[C@@H]2c1nn[nH]n1)c1ccccc1` [2-(3-propionylureido)-2-phenylacetyl], the figure is < 0.1 µg/mL.

Still in this assay, the particulars now being: Streptococcus pyogenes; Table II; two-fold serial dilution, Brain-Heart Infusion broth, overnight; read-out: MIC vs. Strep. pyogenes.
For `CC1(C)S[C@@H]2[C@H](NC(=O)[C@H](NC(=O)CNC(=N)c3nc4ccccc4o3)c3ccccc3)C(=O)N2[C@H]1c1nnn[nH]1`, the MIC was determined as 0.39 µg/mL (≈ 0.679 µM).
Same read-out and setting: under `CC1(C)S[C@@H]2[C@H](NC(=O)[C@H](NC(=O)CNC(=O)NC(=N)NCc3ccncc3)c3ccccc3)C(=O)N2[C@H]1c1nn[nH]n1` stands 0.004 µg/mL (≈ 0.00659 µM).
Still for that read-out and setting: under `CC1(C)S[C@@H]2[C@H](NC(=O)[C@H](NC(=O)CNC(=O)NC(=N)NCC3CCCCC3)c3ccccc3)C(=O)N2[C@H]1c1nn[nH]n1` stands 0.2 µg/mL (≈ 0.327 µM).
On the same count and under the same terms, under `CC1(C)S[C@@H]2[C@H](NC(=O)[C@H](NC(=O)CNC(=O)NC(=N)NCc3ccc(Cl)cc3)c3ccccc3)C(=O)N2[C@H]1c1nn[nH]n1` stands 0.39 µg/mL (≈ 0.609 µM).
Consider `CC1(C)S[C@@H]2[C@H](NC(=O)[C@H](NC(=O)CNC(=N)c3cc(Cl)cc(C#N)c3)c3ccccc3)C(=O)N2[C@H]1c1nnn[nH]1`, for which the MIC was 0.004 µg/mL (≈ 0.00674 µM).
Same read-out and setting: under `CC1(C)S[C@@H]2[C@H](NC(=O)[C@H](NC(=O)CNC(=O)NS(C)(=O)=O)c3ccccc3)C(=O)N2[C@H]1c1nnn[nH]1` stands 0.2 µg/mL (≈ 0.363 µM).
Still for that read-out and setting: as for `CC1(C)S[C@@H]2[C@H](NC(=O)[C@H](NC(=O)CNC(=N)c3cc(Br)cc(S(N)(=O)=O)c3)c3ccccc3)C(=O)N2[C@H]1c1nnn[nH]1`, the figure is 0.004 µg/mL (≈ 0.00578 µM); as for `CC1(C)S[C@@H]2[C@H](NC(=O)[C@H](NC(=O)CNC(=N)c3cc(Cl)cc(S(N)(=O)=O)c3)c3ccccc3)C(=O)N2[C@H]1c1nnn[nH]1`, 0.004 µg/mL (≈ 0.00618 µM); as for `CC1(C)S[C@@H]2[C@H](NC(=O)[C@H](NC(=O)CNC(=N)c3cc(S(N)(=O)=O)cc(S(N)(=O)=O)c3)c3ccccc3)C(=O)N2[C@H]1c1nnn[nH]1`, 0.004 µg/mL (≈ 0.00578 µM).
Still for that read-out and setting: as for `CC1(C)S[C@@H]2[C@H](NC(=O)[C@H](NC(=O)Cc3ccc(Br)cc3)c3ccccc3)C(=O)N2[C@H]1c1nnn[nH]1`, the figure is 0.2 µg/mL (≈ 0.351 µM).
Turning to `CC1(C)S[C@@H]2[C@H](NC(=O)[C@H](NC(=O)CSCc3ccccc3)c3ccccc3)C(=O)N2[C@H]1c1nnn[nH]1`, the MIC was 0.78 µg/mL (≈ 1.45 µM).
The same measure, in the same setting: under `CCNC(=S)NCCC(=O)N[C@@H](C(=O)N[C@@H]1C(=O)N2[C@@H]1SC(C)(C)[C@@H]2c1nnn[nH]1)c1ccccc1` stands 0.39 µg/mL (≈ 0.734 µM); under `CC1(C)S[C@@H]2[C@H](NC(=O)[C@H](NC(=O)CCNC(=S)Nc3ccccc3)c3ccccc3)C(=O)N2[C@H]1c1nnn[nH]1`, 1.56 µg/mL (≈ 2.69 µM); under `CC1(C)S[C@@H]2[C@H](NC(=O)[C@H](NC(=O)CCNC(=N)c3ccc(Cl)c(Cl)c3)c3ccccc3)C(=O)N2[C@H]1c1nnn[nH]1`, 0.78 µg/mL (≈ 1.27 µM).
On to `CC1(C)S[C@@H]2[C@H](NC(=O)[C@H](NC(=O)CCNC(=N)Cc3ccc(Cl)cc3)c3ccccc3)C(=O)N2[C@H]1c1nnn[nH]1`, for which the MIC stood at 1.56 µg/mL (≈ 2.62 µM).
Still for that read-out and setting: under `CC(=O)NC(=S)N[C@@H](C(=O)N[C@@H]1C(=O)N2[C@@H]1SC(C)(C)[C@@H]2c1nn[nH]n1)c1ccccc1` stands 3.2 µg/mL (≈ 6.74 µM); under `CC1(C)S[C@@H]2[C@H](NC(=O)[C@H](NC(=O)NC(=O)OCc3ccccc3)c3ccccc3)C(=O)N2[C@H]1c1nn[nH]n1`, 0.004 µg/mL (≈ 0.00726 µM).
The same measure, in the same setting: as for `CC1(C)S[C@@H]2[C@H](NC(=O)[C@H](NC(=O)CCNC(=N)c3ccccc3)c3ccccc3)C(=O)N2[C@H]1c1nnn[nH]1`, the figure is 3.12 µg/mL (≈ 5.7 µM).
On the same count and under the same terms, under `CC1(C)S[C@@H]2[C@H](NC(=O)[C@H](NC(=O)CCNC(=N)c3cc[n+]([O-])cc3)c3ccccc3)C(=O)N2[C@H]1c1nnn[nH]1` stands 3.12 µg/mL (≈ 5.53 µM); under `CC1(C)S[C@@H]2[C@H](NC(=O)[C@H](NC(=O)c3ccncc3)c3ccccc3)C(=O)N2[C@H]1c1nnn[nH]1`, 3.12 µg/mL (≈ 6.52 µM); under `CC1(C)S[C@@H]2[C@H](NC(=O)C(N)c3cccc([N+](=O)[O-])c3)C(=O)N2[C@H]1c1nnn[nH]1` (mixture of isomers) [DL-2-amino-2-(m-nitrophenyl)acetyl], 0.004 µg/mL.
Regarding `CC1(C)S[C@@H]2[C@H](NC(=O)C(CN)c3ccccc3)C(=O)N2[C@H]1c1nnn[nH]1` (mixture of isomers) [DL-3-amino-2-phenylpropionyl, 6-(DL-3-amino-2-phenylpropionamido)-2,2-dimethyl-3-(5-tetrazolyl)penam], the MIC was 12.5 µg/mL.
On the same count and under the same terms, under `COc1cccc(OC)c1C(=O)N[C@@H]1C(=O)N2[C@@H]1SC(C)(C)[C@@H]2c1nnn[nH]1` [2,6-dimethoxybenzoyl, 6-(2,6-dimethoxybenzamido)-2,2-dimethyl-3-(5-tetrazolyl)penam] stands 0.2 µg/mL (≈ 0.494 µM).
Turning to `CC1(C)S[C@@H]2[C@H](NC(=O)CSc3ccccc3CN)C(=O)N2[C@H]1c1nnn[nH]1` [2-(2-[aminomethyl]phenylthio)acetyl], the MIC was 1.56 µg/mL (≈ 3.72 µM).
On the same count and under the same terms, under `CC1(C)S[C@@H]2[C@H](NC(=O)Cc3ccccc3CC(=O)O)C(=O)N2[C@H]1c1nnn[nH]1` [2-(2-[carboxymethyl]phenyl)acetyl, 6-(2-[2-(Carboxymethyl)phenyl]acetamido)-2,2-dimethyl-3-(5-tetrazolyl)penam] stands 0.2 µg/mL (≈ 0.48 µM).
On the same count and under the same terms, as for `Cc1cc(C)cc(C(=N)NCC(=O)N[C@@H]2C(=O)N3[C@@H]2SC(C)(C)[C@@H]3c2nnn[nH]2)c1` [2-(3,5-dimethylbenzamidino)acetyl], the figure is 0.39 µg/mL (≈ 0.91 µM); as for `CC1(C)S[C@@H]2[C@H](NC(=O)[C@H](NC(=O)NC(=O)CCl)c3ccccc3)C(=O)N2[C@H]1c1nn[nH]n1` [2-(3-[chloroacetyl]ureido-2-phenylacetyl], 0.2 µg/mL (≈ 0.406 µM); as for `CC1(C)S[C@@H]2[C@H](NC(=O)[C@H](NC(=S)NC(=O)c3ccccc3)c3ccccc3)C(=O)N2[C@H]1c1nn[nH]n1` [2-(3-benzoylthioureido)-2-phenylacetyl], 1.56 µg/mL (≈ 2.91 µM).

The assay is the same for the next values; noted with them: Table IV.
Take “6-(2-Phenylacetamido)-2,2-dimethyl-3-(1-pivaloyloxymethyl]-tetrazol-5-yl)penam and 6-(2-Phenylacetamido)-2,2-dimethyl-3-(2-[pivaloyloxylmethyl]tetrazol-5-yl)penam”: the “MIC vs. Strep. pyogenes” value is 0.2 µg/mL.
On the same count and under the same terms, under “6-(2-[2-Aminomethylphenyl]acetamido)-2,2-dimethyl-3-(1-[2]-pivaloyloxymethyltetrazol-5-yl)penam” stands < 0.1 µg/mL.
